In patent publication EP3262942A1, “SELENODIARYLS FOR USE AS MICROBICIDE OR AS MEDICINE” (Evonik Degussa GmbH, priority 2016, dated 2018):

How the values were obtained:
Candida albicans = test: Growth test in microtiter plates, HA medium, 24 h, visual evaluation; format: cell-based; design: key: +: kein Wachstum im Vergleich zur Wachstumskontrolle; -: Wachstum wie Wachstumskontrolle
Lepidium sativum = test: Crop plant growth test, seeds on filter discs, 4 days, visual evaluation; format: in vivo
How it was run: (§1)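 Compounds dried from DMSO onto filter discs; about 12 seeds per well with 200 µl sterile tap water, incubated 4 days in a humid chamber under 16 h light/8 h dark. Visual scoring: + means at least 75 % growth inhibition versus control, − means less than 75 %.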

Setaria italica = test: as above; format: in vivo
How it was run: as §1

Mucor miehei = test: Growth test in microtiter plates, HA medium, 24 h, visual evaluation; format: cell-based; design: key to Aktivität gegenüber M. miehei: +: kein Wachstum im Vergleich zur Wachstumskontrolle; -: Wachstum wie Wachstumskontrolle
M. grisea H2O = test: microbe, parasite or virus in culture; format: cell-based, Magnaporthe grisea; conditions: for inhibition of growth at 5 µg/mL / inhibition of growth at 10 µg/mL / inhibition of growth at 25 µg/mL / inhibition of growth at 50 µg/mL: Pyricularia grisea, H2O, 24 h, read-out: Aktivität gegenüber M. grisea H2O
Botrytis cinerea = test: microbe, parasite or virus in culture; format: cell-based; conditions: for inhibition of growth at 5 µg/mL / inhibition of growth at 10 µg/mL / inhibition of growth at 25 µg/mL / inhibition of growth at 50 µg/mL: Botrytis cinerea, 24 h, read-out: Aktivität gegenüber B. cinerea
M. grisea CM = test: microbe, parasite or virus in culture; format: cell-based, Magnaporthe grisea; conditions: for inhibition of growth at 5 µg/mL / inhibition of growth at 10 µg/mL / inhibition of growth at 25 µg/mL / inhibition of growth at 50 µg/mL: Pyricularia grisea, 24 h, read-out: Aktivität gegenüber M. grisea CM
Paecilomyces variotii = test: Growth test in microtiter plates, HA medium, 24 h, visual evaluation; format: cell-based; design: key: +: kein Wachstum im Vergleich zur Wachstumskontrolle; -: Wachstum wie Wachstumskontrolle
P. infestans = test: microbe, parasite or virus in culture; format: cell-based, Phytophthora infestans; conditions: for inhibition of growth at 5 µg/mL / inhibition of growth at 10 µg/mL / inhibition of growth at 25 µg/mL / inhibition of growth at 50 µg/mL: Phytophthora infestans, 24 h, read-out: Aktivität gegenüber P. infestans
[1] = tested on: alle getesteten Pathogene; format: cell-based; conditions: 5-50 µg/mL
Penicillium notatum = test: Growth test in microtiter plates, HA medium, 24 h, visual evaluation; format: cell-based; design: key: +: kein Wachstum im Vergleich zur Wachstumskontrolle; -: Wachstum wie Wachstumskontrolle

SMILES | Aktivität gegenüber C. albicans (Candida albicans; 10µg/mL) | Aktivität gegenüber C. albicans (Candida albicans; 50µg/mL) | Aktivität gegenüber Nutzpflanzen: L. sativum (Lepidium sativum; 10µg/R) | Aktivität gegenüber Nutzpflanzen: L. sativum (Lepidium sativum; 20µg/R) | Aktivität gegenüber Nutzpflanzen: L. sativum (Lepidium sativum; 50µg/R) | Aktivität gegenüber Nutzpflanzen: S. italica (Setaria italica; 10µg/R) | Aktivität gegenüber Nutzpflanzen: S. italica (Setaria italica; 20µg/R) | Aktivität gegenüber Nutzpflanzen: S. italica (Setaria italica; 50µg/R) | Aktivität gegenüber M. miehei (Mucor miehei; 10µg/mL) | Aktivität gegenüber M. miehei (Mucor miehei; 50µg/mL) | inhibition of growth at 5 µg/mL (M. grisea H2O) | inhibition of growth at 10 µg/mL (M. grisea H2O) | inhibition of growth at 25 µg/mL (M. grisea H2O) | inhibition of growth at 50 µg/mL (M. grisea H2O) | inhibition of growth at 5 µg/mL (Botrytis cinerea; 5µg/mL) | Aktivität gegenüber P. variotii (Paecilomyces variotii; 10µg/mL) | Aktivität gegenüber P. variotii (Paecilomyces variotii; 50µg/mL) | Aktivität im Wachstums- und Keimungshemmungstest gegen die getesteten Pathogene [1] | Aktivität gegenüber P. notatum (Penicillium notatum; 10µg/mL) | Aktivität gegenüber P. notatum (Penicillium notatum; 50µg/mL) | other results
COc1cc(C)cc([Se]c2cc(C)cc(OC)c2O)c1O [Verbindung 20, Bis(2-hydroxy-3-methoxy-5-methylphenyl)selen] | - | - | - (weniger als 75 % Wachstumshemmung im Vergleich zur Kontrolle) | - (weniger als 75 % Wachstumshemmung im Vergleich zur Kontrolle) | - (weniger als 75 % Wachstumshemmung im Vergleich zur Kontrolle) | - (weniger als 75 % Wachstumshemmung im Vergleich zur Kontrolle) | - (weniger als 75 % Wachstumshemmung im Vergleich zur Kontrolle) | - (weniger als 75 % Wachstumshemmung im Vergleich zur Kontrolle) | - | - | 25 to 50% | > 75% | > 75% | > 75% | 0 to 25% | - | - | fungizider Effekt | - | - | inhibition of growth at 10 µg/mL (Botrytis cinerea; 10µg/mL): 0 to 25%; inhibition of growth at 25 µg/mL (Botrytis cinerea; 25µg/mL): 0 to 25%; inhibition of growth at 50 µg/mL (Botrytis cinerea; 50µg/mL): 0 to 25%; inhibition of growth at 5 µg/mL (M. grisea CM): 25 to 50%; inhibition of growth at 10 µg/mL (M. grisea CM): > 75%; inhibition of growth at 25 µg/mL (M. grisea CM): > 75%; inhibition of growth at 50 µg/mL (M. grisea CM): > 75%; inhibition of growth at 5 µg/mL (P. infestans): 0 to 25%; inhibition of growth at 10 µg/mL (P. infestans): 0 to 25%; inhibition of growth at 25 µg/mL (P. infestans): > 75%; inhibition of growth at 50 µg/mL (P. infestans): > 75%
Oc1c(Cl)cc(F)cc1[Se]c1cc(F)cc(Cl)c1O [Verbindung 24, Bis(3-chlor-5-fluor-2-hydroxyphenyl)selen] | + | + | - (weniger als 75 % Wachstumshemmung im Vergleich zur Kontrolle) | + (mind. 75 % Wachstumshemmung im Vergleich zur Kontrolle) | - (weniger als 75 % Wachstumshemmung im Vergleich zur Kontrolle) | - (weniger als 75 % Wachstumshemmung im Vergleich zur Kontrolle) | + (mind. 75 % Wachstumshemmung im Vergleich zur Kontrolle) | - (weniger als 75 % Wachstumshemmung im Vergleich zur Kontrolle) | + | + | > 75% | > 75% | > 75% | > 75% | > 75% | + | - | durchgehende Aktivität gegen alle Pathogene | + | + | Effekt auf L. sativum (Lepidium sativum): deutlichen negativen Effekt; Effekt auf S. italica (Setaria italica): deutlichen negativen Effekt; mikrobizide Wirksamkeit gegenüber B. cinerea (Botrytis cinerea): mikrobizide Wirksamkeit; inhibition of growth at 10 µg/mL (Botrytis cinerea; 10µg/mL): > 75%; inhibition of growth at 25 µg/mL (Botrytis cinerea; 25µg/mL): > 75%; inhibition of growth at 50 µg/mL (Botrytis cinerea; 50µg/mL): > 75%; inhibition of growth at 5 µg/mL (M. grisea CM): > 75%; inhibition of growth at 10 µg/mL (M. grisea CM): > 75%; inhibition of growth at 25 µg/mL (M. grisea CM): > 75%; inhibition of growth at 50 µg/mL (M. grisea CM): > 75%; inhibition of growth at 5 µg/mL (P. infestans): > 75%; inhibition of growth at 10 µg/mL (P. infestans): > 75%; inhibition of growth at 25 µg/mL (P. infestans): > 75%; inhibition of growth at 50 µg/mL (P. infestans): > 75%
Oc1c(F)cc(F)cc1[Se]c1cc(F)cc(F)c1O [Verbindung 25, Bis(3,5-difluoro-2-hydroxyphenyl)selen] | - | + | - (weniger als 75 % Wachstumshemmung im Vergleich zur Kontrolle) | + (mind. 75 % Wachstumshemmung im Vergleich zur Kontrolle) | - (weniger als 75 % Wachstumshemmung im Vergleich zur Kontrolle) | - (weniger als 75 % Wachstumshemmung im Vergleich zur Kontrolle) | + (mind. 75 % Wachstumshemmung im Vergleich zur Kontrolle) | - (weniger als 75 % Wachstumshemmung im Vergleich zur Kontrolle) | + | + |  |  |  |  |  | + | - | durchgehende Aktivität gegen alle Pathogene | + | + | Effekt auf L. sativum (Lepidium sativum): deutlichen negativen Effekt; Effekt auf S. italica (Setaria italica): deutlichen negativen Effekt; Aktivität gegenüber M. grisea H2O (M. grisea H2O; 5µg/mL): +++ (mehr als 75 % der Sporen nicht gekeimt); Aktivität gegenüber M. grisea H2O (M. grisea H2O; 10µg/mL): +++ (mehr als 75 % der Sporen nicht gekeimt); Aktivität gegenüber M. grisea H2O (M. grisea H2O; 25µg/mL): +++ (mehr als 75 % der Sporen nicht gekeimt); Aktivität gegenüber M. grisea H2O (M. grisea H2O; 50µg/mL): +++ (mehr als 75 % der Sporen nicht gekeimt); mikrobizide Wirksamkeit gegenüber B. cinerea (Botrytis cinerea): mikrobizide Wirksamkeit; Aktivität gegenüber B. cinerea (Botrytis cinerea; 5µg/mL): + (key: +++: mehr als 75 % der Sporen nicht gekeimt; ++: zwischen 50 und 75 % der Sporen nicht gekeimt; +: zwischen 25 und 50 % der Sporen nicht gekeimt; -: zwischen 0 und 25 % der Sporen nicht gekeimt); Aktivität gegenüber B. cinerea (Botrytis cinerea; 10µg/mL): +++ (key: +++: mehr als 75 % der Sporen nicht gekeimt; ++: zwischen 50 und 75 % der Sporen nicht gekeimt; +: zwischen 25 und 50 % der Sporen nicht gekeimt; -: zwischen 0 und 25 % der Sporen nicht gekeimt); Aktivität gegenüber B. cinerea (Botrytis cinerea; 25µg/mL): +++ (key: +++: mehr als 75 % der Sporen nicht gekeimt; ++: zwischen 50 und 75 % der Sporen nicht gekeimt; +: zwischen 25 und 50 % der Sporen nicht gekeimt; -: zwischen 0 und 25 % der Sporen nicht gekeimt); Aktivität gegenüber B. cinerea (Botrytis cinerea; 50µg/mL): +++ (key: +++: mehr als 75 % der Sporen nicht gekeimt; ++: zwischen 50 und 75 % der Sporen nicht gekeimt; +: zwischen 25 und 50 % der Sporen nicht gekeimt; -: zwischen 0 und 25 % der Sporen nicht gekeimt); Aktivität gegenüber M. grisea CM (M. grisea CM; 5µg/mL): +++ (mehr als 75 % der Sporen nicht gekeimt); Aktivität gegenüber M. grisea CM (M. grisea CM; 10µg/mL): +++ (mehr als 75 % der Sporen nicht gekeimt); Aktivität gegenüber M. grisea CM (M. grisea CM; 25µg/mL): +++ (mehr als 75 % der Sporen nicht gekeimt); Aktivität gegenüber M. grisea CM (M. grisea CM; 50µg/mL): +++ (mehr als 75 % der Sporen nicht gekeimt); Aktivität gegenüber P. infestans (P. infestans; 5µg/mL): +++ (mehr als 75 % der Sporen nicht gekeimt); Aktivität gegenüber P. infestans (P. infestans; 10µg/mL): +++ (mehr als 75 % der Sporen nicht gekeimt); Aktivität gegenüber P. infestans (P. infestans; 25µg/mL): +++ (mehr als 75 % der Sporen nicht gekeimt); Aktivität gegenüber P. infestans (P. infestans; 50µg/mL): +++ (mehr als 75 % der Sporen nicht gekeimt)
